Consider 19 compounds from patent US10934274B2, “Quinoline derivatives as TAM RTK inhibitors” (Qurient Co., Ltd., priority 2015, dated 2021).

As a reminder, the Kd is the constant that tells how readily two partners part at equilibrium.

The structures appear in SMILES notation.

The target in one assay is T1, Axl (Homo sapiens, UniProt P30530).
T1 construct: purchased Life Technologies
T1 sequence (P30530 26-894): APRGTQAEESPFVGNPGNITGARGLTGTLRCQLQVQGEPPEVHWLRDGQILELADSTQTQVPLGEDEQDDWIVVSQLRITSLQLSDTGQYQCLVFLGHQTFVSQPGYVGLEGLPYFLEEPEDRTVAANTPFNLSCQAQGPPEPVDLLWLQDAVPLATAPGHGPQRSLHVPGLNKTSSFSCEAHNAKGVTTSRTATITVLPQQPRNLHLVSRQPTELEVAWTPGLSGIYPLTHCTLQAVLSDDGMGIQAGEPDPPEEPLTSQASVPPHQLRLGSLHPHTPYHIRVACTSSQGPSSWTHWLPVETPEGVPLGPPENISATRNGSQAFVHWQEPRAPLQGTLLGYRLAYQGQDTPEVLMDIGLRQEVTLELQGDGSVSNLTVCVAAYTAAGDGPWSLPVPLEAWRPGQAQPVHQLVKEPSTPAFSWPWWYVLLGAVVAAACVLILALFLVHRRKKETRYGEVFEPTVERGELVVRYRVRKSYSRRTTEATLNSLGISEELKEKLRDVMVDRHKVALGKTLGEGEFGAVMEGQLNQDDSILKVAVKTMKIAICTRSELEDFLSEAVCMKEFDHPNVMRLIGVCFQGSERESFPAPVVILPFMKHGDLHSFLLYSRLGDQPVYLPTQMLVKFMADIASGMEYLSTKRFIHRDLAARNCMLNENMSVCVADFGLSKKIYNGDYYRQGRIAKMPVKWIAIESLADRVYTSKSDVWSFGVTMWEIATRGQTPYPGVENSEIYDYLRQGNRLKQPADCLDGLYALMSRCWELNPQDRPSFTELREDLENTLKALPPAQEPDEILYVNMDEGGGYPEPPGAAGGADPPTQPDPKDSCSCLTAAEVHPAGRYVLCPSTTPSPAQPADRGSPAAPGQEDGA
Nature of the assay: LanthaScreen Eu kinase binding assay, Axl. Conditions: Tracer 236.

A further assay deals with T2, Mer (Homo sapiens, UniProt Q12866).
T2 construct: purchased Life Technologies
T2 sequence (Q12866 21-999): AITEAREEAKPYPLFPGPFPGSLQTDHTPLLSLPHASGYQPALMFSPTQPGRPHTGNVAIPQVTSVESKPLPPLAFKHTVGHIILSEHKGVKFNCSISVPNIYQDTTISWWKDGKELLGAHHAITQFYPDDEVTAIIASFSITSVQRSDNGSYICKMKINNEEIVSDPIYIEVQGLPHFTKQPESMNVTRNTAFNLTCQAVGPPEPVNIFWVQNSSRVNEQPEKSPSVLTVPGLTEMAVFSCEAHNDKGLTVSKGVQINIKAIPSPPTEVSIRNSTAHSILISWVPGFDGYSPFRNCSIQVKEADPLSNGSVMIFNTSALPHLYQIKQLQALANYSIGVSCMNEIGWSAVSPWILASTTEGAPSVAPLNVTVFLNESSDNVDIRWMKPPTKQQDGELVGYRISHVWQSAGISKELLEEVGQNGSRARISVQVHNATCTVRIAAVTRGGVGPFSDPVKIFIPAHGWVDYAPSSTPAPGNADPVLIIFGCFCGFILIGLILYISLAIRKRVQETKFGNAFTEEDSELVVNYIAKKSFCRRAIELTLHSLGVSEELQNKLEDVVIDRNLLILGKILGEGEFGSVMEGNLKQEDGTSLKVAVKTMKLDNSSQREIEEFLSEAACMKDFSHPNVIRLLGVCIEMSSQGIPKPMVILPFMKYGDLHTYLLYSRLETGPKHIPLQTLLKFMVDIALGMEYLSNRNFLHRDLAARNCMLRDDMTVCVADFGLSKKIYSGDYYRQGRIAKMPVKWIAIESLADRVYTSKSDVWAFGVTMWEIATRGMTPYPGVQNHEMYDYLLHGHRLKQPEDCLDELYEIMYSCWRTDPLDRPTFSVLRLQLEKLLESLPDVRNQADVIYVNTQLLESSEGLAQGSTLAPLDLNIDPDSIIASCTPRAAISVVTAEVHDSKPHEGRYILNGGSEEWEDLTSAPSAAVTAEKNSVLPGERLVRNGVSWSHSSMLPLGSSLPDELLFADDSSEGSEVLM
Description: LanthaScreen Eu kinase binding assay, Mer. The note with it: Tracer 236. A general note: Time-resolved FRET reads energy transfer from a long-lived donor to a nearby acceptor.

The next assay deals with T3, Met (Homo sapiens, UniProt P08581).
T3 construct: purchased Life Technologies
Nature of the assay: LanthaScreen Eu kinase binding assay, Met. Conditions: Tracer 236, read-out: cMet kinase binding activity (Kd).

The target of the next assay is T4, TYRO3 (Homo sapiens, UniProt Q06418).
T4 construct: purchased Life Technologies
T4 sequence (Q06418 41-890): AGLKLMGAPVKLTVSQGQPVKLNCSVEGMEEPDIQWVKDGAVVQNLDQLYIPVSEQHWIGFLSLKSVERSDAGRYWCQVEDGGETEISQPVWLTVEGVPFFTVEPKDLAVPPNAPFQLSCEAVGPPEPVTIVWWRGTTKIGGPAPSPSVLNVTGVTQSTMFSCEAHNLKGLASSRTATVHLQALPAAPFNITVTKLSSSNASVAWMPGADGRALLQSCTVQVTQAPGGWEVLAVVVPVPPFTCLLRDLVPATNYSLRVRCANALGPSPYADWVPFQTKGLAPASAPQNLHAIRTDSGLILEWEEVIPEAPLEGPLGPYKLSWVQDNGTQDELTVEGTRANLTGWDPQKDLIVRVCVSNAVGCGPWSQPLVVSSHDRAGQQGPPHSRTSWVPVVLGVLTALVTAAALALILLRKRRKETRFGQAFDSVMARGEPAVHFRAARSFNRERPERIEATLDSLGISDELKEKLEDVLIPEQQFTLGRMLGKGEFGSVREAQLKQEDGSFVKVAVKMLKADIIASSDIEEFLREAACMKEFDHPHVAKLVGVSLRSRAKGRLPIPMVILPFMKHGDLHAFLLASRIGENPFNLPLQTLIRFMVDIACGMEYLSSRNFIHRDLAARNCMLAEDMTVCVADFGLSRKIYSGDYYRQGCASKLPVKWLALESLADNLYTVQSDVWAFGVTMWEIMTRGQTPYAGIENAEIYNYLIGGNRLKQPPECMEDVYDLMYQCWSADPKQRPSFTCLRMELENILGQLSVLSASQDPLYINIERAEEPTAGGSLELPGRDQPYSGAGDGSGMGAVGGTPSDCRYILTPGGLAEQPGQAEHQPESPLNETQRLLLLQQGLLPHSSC
Description: LanthaScreen Eu kinase binding assay, TYRO3. The note with it: Tracer 236.

T3 sequence (P08581 25-1390): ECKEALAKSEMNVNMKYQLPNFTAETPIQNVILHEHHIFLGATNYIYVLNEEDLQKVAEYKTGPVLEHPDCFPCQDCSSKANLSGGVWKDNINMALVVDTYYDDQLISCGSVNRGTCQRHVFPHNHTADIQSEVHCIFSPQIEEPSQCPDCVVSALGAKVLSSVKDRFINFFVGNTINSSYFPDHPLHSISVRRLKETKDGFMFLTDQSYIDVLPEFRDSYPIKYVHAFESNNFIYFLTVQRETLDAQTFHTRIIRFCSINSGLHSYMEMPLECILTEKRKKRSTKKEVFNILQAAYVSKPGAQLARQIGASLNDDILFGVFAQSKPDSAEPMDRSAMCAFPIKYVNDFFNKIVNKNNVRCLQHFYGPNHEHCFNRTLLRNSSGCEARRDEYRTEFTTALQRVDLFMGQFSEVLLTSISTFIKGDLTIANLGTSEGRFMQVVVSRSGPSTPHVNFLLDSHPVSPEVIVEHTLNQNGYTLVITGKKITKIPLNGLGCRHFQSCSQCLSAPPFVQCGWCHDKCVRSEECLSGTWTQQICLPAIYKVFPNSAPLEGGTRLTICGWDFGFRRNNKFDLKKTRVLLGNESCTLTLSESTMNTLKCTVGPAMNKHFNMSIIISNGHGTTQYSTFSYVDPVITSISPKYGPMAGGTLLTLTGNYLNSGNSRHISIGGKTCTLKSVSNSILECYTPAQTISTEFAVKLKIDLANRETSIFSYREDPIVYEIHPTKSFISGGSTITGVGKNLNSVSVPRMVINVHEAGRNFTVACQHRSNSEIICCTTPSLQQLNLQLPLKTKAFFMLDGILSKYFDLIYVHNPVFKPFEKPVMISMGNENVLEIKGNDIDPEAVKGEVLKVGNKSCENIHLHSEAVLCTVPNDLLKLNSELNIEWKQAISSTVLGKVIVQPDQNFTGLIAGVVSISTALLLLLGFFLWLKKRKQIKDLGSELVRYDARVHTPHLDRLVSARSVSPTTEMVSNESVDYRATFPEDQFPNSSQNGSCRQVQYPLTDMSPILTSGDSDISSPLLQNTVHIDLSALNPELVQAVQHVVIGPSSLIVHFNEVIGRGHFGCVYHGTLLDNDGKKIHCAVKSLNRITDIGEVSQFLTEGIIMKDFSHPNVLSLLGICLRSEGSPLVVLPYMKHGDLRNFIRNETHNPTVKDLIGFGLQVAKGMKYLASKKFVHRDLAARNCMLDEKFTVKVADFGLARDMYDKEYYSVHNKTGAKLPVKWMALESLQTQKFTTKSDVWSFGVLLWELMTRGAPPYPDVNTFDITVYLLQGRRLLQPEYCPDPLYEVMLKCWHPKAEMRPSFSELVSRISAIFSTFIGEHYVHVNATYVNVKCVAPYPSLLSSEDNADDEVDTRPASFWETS

`CCOc1cnn(-c2cncn2C)c1C(=O)Nc1ccc(Oc2ccnc3cc(OC)c(OC)cc23)cn1` [Compound 15]: the Kd at Axl is at least 1000 nM; on Mer, 100 to 1000 nM; on Met, 100 to 1000 nM; on TYRO3 it was at least 1000 nM.
Turning to `CCOc1cn(CC2CCN(C)CC2)nc1C(=O)Nc1ccc(Oc2ccnc3cc(OC)c(OC)cc23)cc1F` [Compound 219], the Kd on Axl, on Mer, on Met and at TYRO3 was 100 to 1000 nM in each case.
Regarding `CCOc1cn(-c2cnccc2C(=O)OC)nc1C(=O)Nc1ccc(Oc2ccnc3cc(OC)c(OC)cc23)cn1` [Compound 172], the Kd on Axl, at Mer, at Met and at TYRO3 was below 100 nM in each case.
On to `CCOc1cn(-c2cnc(N)nc2)nc1C(=O)Nc1ccc(Oc2ccnc3cc(OC)c(OC)cc23)c(Cl)c1` [Compound 146], for which the Kd at Axl, on Mer, at Met and at TYRO3 was below 100 nM each time.
Turning to `COc1cc2c(Oc3ccc(NC(=O)c4c(OCC(F)(F)F)cnn4-c4cnc(N)nc4)nc3)ccnc2cc1OC(C)C` [Compound 256], the Kd was 100 to 1000 nM at Axl, 100 to 1000 nM on Mer, at least 1000 nM on Met and at least 1000 nM at TYRO3.
As to `CCOc1cn(-c2cnccc2C#N)nc1C(=O)Nc1ccc(Oc2ccnc3cc(OC)c(OC)cc23)cn1` [Compound 147], the Kd on Axl, on Mer, on Met and on TYRO3 was below 100 nM in each case.
Turning to `CCOc1cnn(-c2ccc(C(C)C)cc2)c1C(=O)Nc1ccc(Oc2ccnc3cc(OC)c(OC)cc23)cn1` [Compound 118], the Kd at Axl is 100 to 1000 nM; at Mer, below 100 nM; on Met, 100 to 1000 nM; on TYRO3 it was 100 to 1000 nM.
In the case of `CCOc1cn(CC2CCCN(C)C2)nc1C(=O)Nc1ccc(Oc2ccnc3cc(OC)c(OC)cc23)cc1F` (stereo not shown) [Compound 214], the Kd at Axl, at Mer, on Met and at TYRO3 was 100 to 1000 nM each time.
Take `CCOc1cn(-c2cnc(N)cc2C)nc1C(=O)Nc1ccc(Oc2ccnc3cc(OC)c(OC)cc23)cn1` [Compound 137]: the Kd on Axl is below 100 nM; on Mer, below 100 nM; on Met it was below 100 nM; on TYRO3, 100 to 1000 nM.
In the case of `CCOc1cn(-c2cnccc2CC(=O)OC)nc1C(=O)Nc1ccc(Oc2ccnc3cc(OC)c(OC)cc23)cn1` [Compound 176], the Kd at Axl is below 100 nM; on Mer, below 100 nM; at Met it was below 100 nM; at TYRO3, 100 to 1000 nM.
For the compound `CCOc1cn(-c2cccnc2)nc1C(=O)Nc1cnc(Oc2ccnc3cc(OC)c(OC)cc23)nc1` [Compound 60], the Kd at Axl, at Mer, at Met and on TYRO3 was at least 1000 nM each time.
Take `CCOc1cnn(-c2ccoc2)c1C(=O)Nc1ccc(Oc2ccnc3cc(OC)c(OC)cc23)cn1` [Compound 25]: the Kd on Axl was 100 to 1000 nM; at Mer, at least 1000 nM; at Met it was at least 1000 nM; at TYRO3, at least 1000 nM.
Turning to `CCOc1cn(-c2cncnc2)nc1C(=O)Nc1ccc(Oc2ccnc3cc(OC)c(OC)cc23)cn1` [Compound 2], the Kd at Axl, at Mer, on Met and at TYRO3 was below 100 nM throughout.
For the compound `CCOc1cn(-c2cnccn2)nc1C(=O)Nc1cc(C)c(Oc2ccnc3cc(OC)c(OC)cc23)cn1` [Compound 163], the Kd was below 100 nM on Axl, below 100 nM at Mer, below 100 nM at Met and at least 1000 nM at TYRO3.
On to `CCOc1cn(-c2cnccn2)nc1C(=O)Nc1ccc(Oc2ccnc3cc(OC)c(OC)cc23)cc1F` [Compound 152], for which the Kd on Axl was at least 1000 nM; at Mer, below 100 nM; at Met, at least 1000 nM; on TYRO3, at least 1000 nM.
For the compound `CCOc1cn(C2CCN(C)C2)nc1C(=O)Nc1ccc(Oc2ccnc3cc(OC)c(OC)cc23)cn1` (stereo not shown) [Compound 74], the Kd at Axl is 100 to 1000 nM; at Mer, below 100 nM; at Met, 100 to 1000 nM; at TYRO3, 100 to 1000 nM.
Turning to `CCOc1cnn(C2CCOC2)c1C(=O)Nc1ccc(Oc2ccnc3cc(OC)c(OC)cc23)cn1` (stereo not shown) [Compound 77], the Kd was 100 to 1000 nM on Axl, below 100 nM at Mer, 100 to 1000 nM on Met and 100 to 1000 nM on TYRO3.
In the case of `CCOc1cn(-c2cnc(N)nc2)nc1C(=O)Nc1ccc(Oc2ccnc3cc(OC)c(OC)cc23)cc1F` [Compound 153], the Kd at Axl, at Mer, on Met and at TYRO3 was below 100 nM throughout.
Regarding `CCOc1nn(-c2ccc(F)cc2C)cc1C(=O)Nc1ccc(Oc2ccnc3cc(OC)c(OC)cc23)c(F)c1` [Compound 277], the Kd on Axl is at least 1000 nM; at Mer, 100 to 1000 nM; on Met it was at least 1000 nM; on TYRO3, below 100 nM.
